Data taken from PubChem BioAssay (NCI).
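Results reflect a 48-hour exposure of cells in 96-well plates to compound at five concentrations. At the GI50, growth is halved. The concentration for full growth arrest is given as TGI.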

Tests used:
Experiment in all cases: growth of human tumour cells (NCI), 48 h
[1] = tested on: NCI-H23 lung
[2] = tested on: NCI-H460 lung
[3] = tested on: NCI/ADR-RES ovarian
[4] = tested on: OVCAR-3 ovarian
[5] = tested on: OVCAR-4 ovarian
[6] = tested on: OVCAR-5 ovarian
[7] = tested on: RPMI-8226 leukemia
[8] = tested on: RXF 393 renal
[9] = tested on: SF-268 CNS
[10] = tested on: SF-295 CNS
[11] = tested on: SF-539 CNS
[12] = tested on: SK-MEL-2 melanoma
[13] = tested on: SK-MEL-28 melanoma
[14] = tested on: SK-MEL-5 melanoma
[15] = tested on: SK-OV-3 ovarian
[16] = tested on: SN12C renal
[17] = tested on: SNB-19 CNS
[18] = tested on: SNB-75 CNS
[19] = tested on: SR leukemia
[20] = tested on: SW-620 colon
[21] = tested on: TK-10 renal
[22] = tested on: U251 CNS
[23] = tested on: UACC-257 melanoma
[24] = tested on: UACC-62 melanoma
[25] = tested on: UO-31 renal

`CC1(C)CC[C@]23CC[C@]4(C)[C@H](CC[C@@H]5[C@@]6(C)CC[C@H](N)C(C)(C)[C@@H]6CC[C@]54C)[C@H]2[C@H]1OC3=O` showed a TGI [1] of 3.22 µM, a GI50 [2] of 1.64 µM and a TGI [2] of 3.17 µM. It also gave a GI50 [3] of 1.8 µM, a TGI [3] of 3.61 µM and a GI50 [4] of 1.66 µM. For the same compound, the TGI [4] was 3.1 µM, the GI50 [5] was 1.94 µM and the TGI [5] was 3.86 µM. For the same compound, the GI50 [6] was 1.65 µM, the TGI [6] was 3.02 µM and the GI50 [7] was 2.1 µM. It also gave a TGI [7] of 5.26 µM, a GI50 [8] of 1.63 µM and a TGI [8] of 3.11 µM. For the same compound, the GI50 [9] was 1.69 µM, the TGI [9] was 3.36 µM and the GI50 [10] was 1.76 µM. The TGI [10] was 3.22 µM, the GI50 [11] was 1.68 µM and the TGI [11] was 3.05 µM. It also gave a GI50 [12] of 3.02 µM, a TGI [12] of 9.41 µM and a GI50 [13] of 1.78 µM. The TGI [13] was 3.18 µM, the GI50 [14] was 1.75 µM and the TGI [14] was 3.14 µM. It also gave a GI50 [15] of 12.1 µM, a TGI [15] of 37.3 µM and a GI50 [16] of 1.64 µM. It also gave a TGI [16] of 3.05 µM, a GI50 [17] of 1.64 µM and a TGI [17] of 3.05 µM. The GI50 [18] was 1.36 µM, the TGI [18] was 2.86 µM and the GI50 [19] was 1.59 µM. The TGI [19] was 5.08 µM, the GI50 [20] was 1.44 µM and the TGI [20] was 2.86 µM. The GI50 [21] was 1.7 µM, the TGI [21] was 3.49 µM and the GI50 [22] was 1.72 µM. For the same compound, the TGI [22] was 3.27 µM, the GI50 [23] was 1.8 µM and the TGI [23] was 3.43 µM. The GI50 [24] was 1.73 µM, the TGI [24] was 3.19 µM and the GI50 [25] was 1.51 µM. For the same compound, the TGI [25] was 2.87 µM.
